In patent US20240383908A1, “SYNTHESIS AND APPLICATION OF PHOSPHATASE DEGRADER” (HINOVA PHARMACEUTICALS INC., priority 2021, published 2024):
Structures can show the parent of a compound that is named as a salt.

Key:
Type in all cases: cell-based
NCI-H358 = assay: Inhibition of cell proliferation, NCI-H358 (CCK-8); conditions: Homo sapiens, NCI-H358 cells, read-out: Inhibition activity on the proliferation of different cell lines NCI-H358 (IC50)
Method: (§1) (1) MV-411 cells were cultured in the cell culture medium, and then well-growing cells were selected and inoculated in a 96-well plate at 80 μL/well, with 2×10^4 cells/well. The plate was incubated overnight in a 5% CO2 cell incubator at 37° C.
(§2) (2) 10 mM storage solution of each drug was prepared using dimethylsulfoxide (DMSO). The stock solution was diluted in a ratio of 1:3 with DMSO before use, and then the solution was serially diluted in a ratio of 1:3, to obtain 9 gradient concentrations. Each concentration was further diluted with the medium in a ratio of 1:200 (to ensure that the DMSO concentration in the culture system was 0.1%). Two wells were set for each concentration. 20 μL of each compound solution was added to the cell culture well (with a final concentration of 10 μM, 3.3 μM, 1.1 μM . . . ). The plate was gently shaken and mixed. Additionally, 3 negative control wells (only containing cells) and 3 blank control wells (only containing the medium) were included (6 wells were each added with 20 μL of DMSO diluted with the medium in a ratio of 1:200).
(§3) (1) After 5 days of cultivation, 10 μL of CCK-8 was added to each well, and then the plate was further cultured for 3 h at 37° C. in a 5% CO2 cell incubator.
(§4) (2) The absorbance (OD value) was measured at 450 nm with a multifunctional microplate reader. (3) The data were analyzed using the Dose-response-inhibition equation in GraphPad Prism8 software to obtain the IC50 value.
(§5) Using a similar method, the IC50 value (nM) for the inhibitory activity of the compound according to the present invention against different cell lines was obtained, and the results are shown in Table 3 (++++: IC50>5 μM; +++: 1 μM<IC50<5 μM; ++: IC50<1 μM).

SHP2 protein [1] = target: T1, SHP2 protein (Homo sapiens, UniProt Q06124); assay: Degradation activity on SHP2 protein in MIA Paca-2 cells (Western blot, DC50); design: endogenous in cells; host or cells: MIA Paca-2 cells; conditions: read-out: Degradation activity for differenct cell lines MIA Paca-2 (DC50)
T1 sequence (Q06124 1-593): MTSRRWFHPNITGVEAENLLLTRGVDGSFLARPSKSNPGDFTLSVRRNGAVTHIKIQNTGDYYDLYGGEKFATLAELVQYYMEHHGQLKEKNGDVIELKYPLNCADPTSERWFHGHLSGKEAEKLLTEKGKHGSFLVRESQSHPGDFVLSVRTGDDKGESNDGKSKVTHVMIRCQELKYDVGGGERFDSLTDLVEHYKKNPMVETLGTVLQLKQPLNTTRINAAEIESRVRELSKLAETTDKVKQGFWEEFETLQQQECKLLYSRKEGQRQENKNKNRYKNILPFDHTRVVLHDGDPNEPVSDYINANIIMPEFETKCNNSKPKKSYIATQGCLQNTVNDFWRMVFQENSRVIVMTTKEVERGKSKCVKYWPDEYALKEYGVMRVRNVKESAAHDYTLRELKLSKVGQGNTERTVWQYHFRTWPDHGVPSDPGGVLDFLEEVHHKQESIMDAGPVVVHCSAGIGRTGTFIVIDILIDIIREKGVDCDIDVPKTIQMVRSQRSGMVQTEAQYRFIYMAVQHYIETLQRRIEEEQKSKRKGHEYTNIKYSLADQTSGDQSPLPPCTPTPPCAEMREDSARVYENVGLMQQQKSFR
In short: (§6)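 Cells were treated 24 h at 37 °C with compound (0.1–100 nM final, 0.1% DMSO). SHP2 was measured by Western blot with GAPDH as loading control, densitometry normalized to DMSO (100%). DC50, the concentration giving 50% degradation, came from a dose-response fit.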

SHP2 protein [2] = target: T1, SHP2 protein; assay: Degradation activity on SHP2 protein in MV-411 cells (Western blot, DC50); design: endogenous in cells; conditions: MV411 cells, 24 hours, read-out: Degradation activity for differenct cell lines MV411 (DC50)
In short: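 MV-411 cells (1×10^6 cells/well, IMDM + 10% FBS) were treated 24 h with compound at 0.1-100 nM final, 0.1% DMSO, duplicates. SHP2 measured by Western blot against GAPDH, band density normalised to DMSO control; DC50 from dose-response fit.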

SHP2 protein [3] = target: T1, SHP2 protein; assay: Degradation activity on SHP2 protein in NCI-H358 cells (Western blot, DC50); design: endogenous in cells; conditions: read-out: Degradation activity for differenct cell lines NCI-H358 (DC50)
In short: as §6

MIA Paca-2 = assay: Inhibition of cell proliferation, MIA Paca-2 (CCK-8); conditions: Homo sapiens, MIA Paca-2 cells, read-out: Inhibition activity on the proliferation of different cell lines MIA Paca-2 (IC50)
Method: as §1, §2, §3, §4, §5

MV-411 cell line = assay: Inhibition of cell proliferation, MV-411 (CCK-8); conditions: Homo sapiens, MV4-11, 120 h, MV411 cells, 5 days, read-out: Inhibition activity on the proliferation of different cell lines MV411 (IC50)
Method: • MV-411 cell line (COBIER, CBP-60522) • FBS (GEMINI, Cat. No. 900-108) • 0.01M PBS (Biosharp, Cat. No. 162262) • IMDM (Hyclone, Cat. No. SH30228.01) • Penicillin-Streptomycin (Gibco, Cat. No. 15140122) • DMSO (Sigma, Cat. No. D5879) • Cell counting kit-8 (Signalway Antibody, Cat. No. CP002) • Centrifuge Tube, 15 ml (Excell Bio, Cat. No. CS015-0001) • Cell Culture Dish, (WHB, Cat. No. CS016-0128) • 96-well cell culture cluster (Corning, Cat. No. 3599)
• (1) Cell culture medium: IMDM medium+10% FBS+1% Pen Strep; • (2) PBS buffer: PBS powder was dissolved in 2 L of ultrapure water and sterilized;
as §1, §2, §3, §4

NCI-H1975 = assay: Inhibition of cell proliferation, NCI-H1975 (CCK-8); conditions: Homo sapiens, NCI-H1975 cells, read-out: Inhibition activity on the proliferation of different cell lines NCI-H1975 (IC50)
Method: as §1, §2, §3, §4, §5

KYSE 520 = assay: Inhibition of cell proliferation, KYSE 520 (CCK-8); conditions: Homo sapiens, KYSE 520 cells, read-out: Inhibition activity on the proliferation of different cell lines KYSE 520 (IC50)
Method: as §1, §2, §3, §4, §5

In the case of CC1(N)CCN(c2cnc(Sc3cccc(NC(=O)CCCCCCN4CC5(CCN(c6ccc(C(=O)NCc7ccc8c(c7)CN(C7CCC(=O)NC7=O)C8=O)nn6)C5)C4)c3)cn2)CC1 (stereo not shown) [Compound 110], the IC50 (NCI-H358) is reported as greater than 5000 nM, the DC50 (SHP2 protein [1]) is reported as 100 to 1000 nM and the DC50 (SHP2 protein [2]) is reported as less than 100 nM. The DC50 (SHP2 protein [3]) was 100 to 1000 nM and the IC50 (MIA Paca-2) was greater than 5000 nM.

For O=C1CCC(N2Cc3cc(CNC(=O)c4ccc(N5CCC6(CN(CCC(=O)Nc7cccc(Sc8cnc(N9CCC%10(CCNC%10)CC9)cn8)c7)C6)C5)nn4)ccc3C2=O)C(=O)N1 (stereo not shown) [Compound 111], the IC50 (NCI-H358) was 1000 to 5000 nM, the IC50 (MV-411 cell line) was less than 1000 nM and the DC50 (SHP2 protein [2]) was greater than 1000 nM. For the same molecule, the IC50 (MIA Paca-2) was 1000 to 5000 nM.

With CC1(N)CCN(c2cnc(Sc3cccc(NC(=O)c4ccc(N5CCC(N6CC=C(c7ccc(C(=O)NCc8ccc9c(c8)CN(C8CCC(=O)NC8=O)C9=O)nc7)CC6)C5)cc4)c3)cn2)CC1 (stereo not shown) [Compound 403] the DC50 (SHP2 protein [1]) was less than 100 nM and the IC50 (NCI-H1975) was 1000 to 5000 nM.

Molecule C[C@@H]1OCC2(CCN(c3cnc(Sc4cccc(NC(=O)c5ccc(N6CCC(N7CC=C(c8ccc(C(=O)NCc9ccc%10c(c9)CN(C9CCC(=O)NC9=O)C%10=O)nc8)CC7)CC6)c(F)c5)c4)cn3)CC2)[C@@H]1N (stereo partly shown) [Compound 412] has a DC50 (SHP2 protein [1]) of less than 100 nM, an IC50 (MV-411 cell line) of 1000 to 5000 nM and an IC50 (KYSE 520) of 1000 to 5000 nM. The IC50 (NCI-H1975) was less than 1000 nM.

In the case of CC1(N)CCN(c2cnc(Sc3cccc(NC(=O)c4ccc(N5CCC(N6CC=C(c7cnc(C(=O)NCc8ccc9c(c8)CN(C8CCC(=O)NC8=O)C9=O)c(F)c7)CC6)CC5)c(F)c4)c3)cn2)CC1 (stereo not shown) [Compound 414], the DC50 (SHP2 protein [1]) is reported as less than 100 nM, the IC50 (MV-411 cell line) is reported as greater than 5000 nM and the IC50 (KYSE 520) is reported as 1000 to 5000 nM.

For Cc1cc(N2CCC(N3CC=C(c4ccc(C(=O)NCc5ccc6c(c5)CN(C5CCC(=O)NC5=O)C6=O)nc4)CC3)CC2)ccc1C(=O)Nc1cccc(Sc2cnc(N3CCC(C)(N)CC3)cn2)c1 (stereo not shown) [Compound 421], the DC50 (SHP2 protein [1]) was less than 100 nM, the IC50 (MV-411 cell line) was less than 1000 nM and the DC50 (SHP2 protein [3]) was less than 100 nM. For the same molecule, the IC50 (KYSE 520) was 1000 to 5000 nM.

Cc1cc(C(=O)Nc2cccc(Sc3cnc(N4CCC(C)(N)CC4)cn3)c2)ccc1N1CCC(N2CC=C(c3ccc(C(=O)NCc4ccc5c(c4)CN(C4CCC(=O)NC4=O)C5=O)nc3)CC2)CC1 (stereo not shown) [Compound 422] showed a DC50 (SHP2 protein [1]) of less than 100 nM, an IC50 (MV-411 cell line) of 1000 to 5000 nM and a DC50 (SHP2 protein [3]) of less than 100 nM. For the same molecule, the IC50 (KYSE 520) was greater than 5000 nM.

C[C@@H]1OCC2(CCN(c3cnc(Sc4cccc(NC(=O)c5ccc(N6CCC(N7CC=C(c8ccc(C(=O)NCc9ccc%10c(c9)CN(C9CCC(=O)NC9=O)C%10=O)c(F)c8)CC7)CC6)c(F)c5)c4)cn3)CC2)[C@@H]1N (stereo partly shown) [Compound 482] showed a DC50 (SHP2 protein [1]) of less than 100 nM and an IC50 (NCI-H1975) of less than 1000 nM.

C[C@@H]1OCC2(CCN(c3cnc(Sc4cccc(NCc5ccc(N6CCC(N7CC=C(c8ccc(C(=O)NCc9ccc%10c(c9)CN(C9CCC(=O)NC9=O)C%10=O)nc8)CC7)CC6)c(F)c5)c4)cn3)CC2)[C@@H]1N (stereo partly shown) [Compound 485] gave a DC50 (SHP2 protein [1]) of less than 100 nM and an IC50 (NCI-H1975) of less than 1000 nM.

In the case of C[C@@H]1OCC2(CCN(c3cnc(Sc4cccc(NC(=O)c5ccc(N6CCC(N7CCN(c8ccc(C(=O)NCc9ccc%10c(c9)CN(C9CCC(=O)NC9=O)C%10=O)c(F)c8)CC7)CC6)cc5)c4)cn3)CC2)[C@@H]1N (stereo partly shown) [Compound 500], the DC50 (SHP2 protein [1]) is reported as greater than 1000 nM, the IC50 (MV-411 cell line) is reported as less than 1000 nM and the IC50 (KYSE 520) is reported as 1000 to 5000 nM.

C[C@@H]1OCC2(CCN(c3cnc(Sc4cccc(NC(=O)c5ccc(N6CCC(N7CCN(c8ccc(C(=O)NCc9ccc%10c(c9)CN(C9CCC(=O)NC9=O)C%10=O)c(F)c8)CC7)CC6)c(F)c5)c4)cn3)CC2)[C@@H]1N (stereo partly shown) [Compound 501, hydrochloride] gave a DC50 (SHP2 protein [1]) of less than 100 nM, an IC50 (MV-411 cell line) of less than 1000 nM and an IC50 (KYSE 520) of 1000 to 5000 nM. For the same molecule, the IC50 (NCI-H1975) was 1000 to 5000 nM.

Work on C[C@@H]1OCC2(CCN(c3cnc(Sc4cccc(NC(=O)c5ccc(N6CCC(N7CCN(c8ccc(C(=O)NCc9ccc%10c(c9)CN(C9CCC(=O)NC9=O)C%10=O)cc8F)CC7)CC6)cc5)c4)cn3)CC2)[C@@H]1N (stereo partly shown) [Compound 514] yielded a DC50 (SHP2 protein [1]) greater than 1000 nM, an IC50 (MV-411 cell line) of less than 1000 nM and an IC50 (KYSE 520) of 1000 to 5000 nM.

In the case of C[C@@H]1OCC2(CCN(c3cnc(Sc4cccc(NC(=O)c5ccc(N6CCC(N7CC=C(c8ccc(C(=O)NCc9ccc%10c(c9)CN(C9CCC(=O)NC9=O)C%10=O)nn8)CC7)CC6)c(F)c5)c4)cn3)CC2)[C@@H]1N (stereo partly drawn) [Compound 519, N-{[2-(2,6-oxohexahydropyridine-3-yl)-1-oxo-2,3-dihydro-1H-isoindol-5-yl]methyl}-6-(1-{1-[2-fluoro-4-({[3-({5-[(3S,4S)-4-amino-3-methyl-8-aza-2-oxaspiro[4.5]decan-8-yl]pyrazin-2-yl}thio)phenyl]amino}carbonyl)phenyl]hexahydropyridine-4-yl}-1,2,3,6-tetrahydropyridin-4-yl)-1,2-diazacyclohexane-3-formamide hydrochloride], the DC50 (SHP2 protein [1]) is reported as less than 100 nM, the IC50 (MV-411 cell line) is reported as less than 1000 nM and the IC50 (KYSE 520) is reported as 1000 to 5000 nM.
